Reference: ChEMBL document CHEMBL1201862, “PubChem BioAssay data set” (2004)
Where “and” joins values, the source holds several entries; their conditions need not be identical. Equal values may be shown once.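 Briefly, cells in 96-well plates were exposed to five compound concentrations for 48 h, and endpoints were estimated by linear interpolation. GI50 marks 50% less growth.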 Calls of active or inactive are those of the source. Cut-off read from the data, not from the text of the source: active = GI50 up to about 1.1 µM and inactive = higher.

Legend:
Assay in all cases: NCI tumour cell line growth inhibition, 48 h
786-0 = test system: 786-0
ACHN = test system: ACHN
CAKI-1 = test system: CAKI-1
CCRF-CEM = test system: CCRF-CEM
COLO 205 = test system: COLO 205
MDA-MB-435 = test system: MDA-MB-435
MDA-N = test system: MDA-N
NCI/ADR-RES = test system: NCI/ADR-RES
OVCAR-4 = test system: OVCAR-4
PC-3 = test system: PC-3
RPMI-8226 = test system: RPMI-8226
SF-539 = test system: SF-539
SK-MEL-2 = test system: SK-MEL-2
SK-OV-3 = test system: SK-OV-3
SW-620 = test system: SW-620
T47D = test system: T47D
HOP-62 = test system: HOP-62
Hs-578T = test system: Hs-578T
OVCAR-3 = test system: OVCAR-3
UACC-62 = test system: UACC-62

Measured: GI50

CC(C)=C[C@H]1CCC2(OCCO2)[C@]1(C)CO
inactive: 786-0 > 100 µM | ACHN > 100 µM | CAKI-1 > 100 µM | CCRF-CEM > 100 µM | COLO 205 > 100 µM | MDA-MB-435 > 100 µM | MDA-N > 100 µM | NCI/ADR-RES > 100 µM | OVCAR-4 > 100 µM | PC-3 > 100 µM | RPMI-8226 > 100 µM | SF-539 > 100 µM | SK-MEL-2 > 100 µM | SK-OV-3 > 100 µM | SW-620 > 100 µM | T47D > 100 µM

Cn1c(C(C)(C)OC(=O)Oc2ccccc2)cnc1[N+](=O)[O-]
inactive: 786-0 > 100 µM | ACHN > 100 µM | CAKI-1 > 100 µM | COLO 205 71.1 µM | HOP-62 > 100 µM | Hs-578T > 100 µM | MDA-MB-435 > 100 µM | NCI/ADR-RES > 100 µM | OVCAR-3 93.5 µM | OVCAR-4 38.7 µM | PC-3 > 100 µM | RPMI-8226 21 µM | SF-539 > 100 µM | SK-MEL-2 > 100 µM | SK-OV-3 > 100 µM | SW-620 72.8 µM | T47D > 100 µM | UACC-62 55.6 µM

Cn1c(=O)oc2nc(-c3ccccc3)cc(C(F)(F)F)c21
inactive: 786-0 > 100 µM | ACHN > 100 µM | CAKI-1 > 100 µM | COLO 205 > 100 µM | HOP-62 > 100 µM | MDA-MB-435 15.9 µM | MDA-N 3.23 µM | NCI/ADR-RES 58.3 µM | OVCAR-3 32.8 µM | OVCAR-4 45.4 µM | PC-3 > 100 µM | RPMI-8226 30.5 µM | SF-539 5.3 µM | SK-MEL-2 > 100 µM | SK-OV-3 > 100 µM | SW-620 > 100 µM | T47D > 100 µM | UACC-62 > 100 µM

CCN(CC)CCn1c2c3ccccc3ccc2c2oc(=O)c3ccccc3c21
inactive: 786-0 22.9 µM | ACHN > 100 µM | CAKI-1 > 100 µM | CCRF-CEM > 100 µM | COLO 205 > 100 µM | HOP-62 18.3 µM | OVCAR-3 > 100 µM | OVCAR-4 28.1 µM | RPMI-8226 > 100 µM | SF-539 22.6 µM | SK-MEL-2 > 100 µM | SK-OV-3 > 100 µM | SW-620 > 100 µM | UACC-62 > 100 µM

CC(CO)C1C[C@H](O)[C@@]2(C)CC(=O)C=C(CO)[C@@H]2C1 (stereo not given in full)
inactive: 786-0 > 100 µM | ACHN > 100 µM | CAKI-1 > 100 µM | COLO 205 > 100 µM | HOP-62 > 100 µM | MDA-MB-435 > 100 µM | MDA-N > 100 µM | NCI/ADR-RES > 100 µM | OVCAR-3 > 100 µM | OVCAR-4 > 100 µM | SF-539 > 100 µM | SK-MEL-2 > 100 µM | SK-OV-3 > 100 µM | SW-620 > 100 µM | T47D > 100 µM | UACC-62 > 100 µM

CN(/N=C\c1ccc2ccccc2c1)C1=NCCCN1
inactive: 786-0 12.7 µM | ACHN 13.3 µM | CAKI-1 4.88 µM | CCRF-CEM 12.7 µM | COLO 205 12.7 µM | HOP-62 12.1 µM | Hs-578T 10.7 µM | MDA-MB-435 15.2 µM | NCI/ADR-RES 19.5 µM | OVCAR-3 18.9 µM | OVCAR-4 26.5 µM | RPMI-8226 14.9 µM | SF-539 19.8 µM | SK-MEL-2 15.2 µM | SK-OV-3 19.1 µM | SW-620 12.1 µM | T47D 22.6 µM | UACC-62 14.2 µM

CC(=O)OCC1OC(n2c(-c3ccccc3)c(C(C)=O)c(-c3cccc4ccccc34)c(C#N)c2=S)C(OC(C)=O)C(OC(C)=O)C1OC(C)=O (stereo not given)
inactive: 786-0 > 100 µM | ACHN > 100 µM | CCRF-CEM > 100 µM | COLO 205 > 100 µM | HOP-62 > 100 µM | MDA-MB-435 > 100 µM | MDA-N > 100 µM | NCI/ADR-RES > 100 µM | OVCAR-3 > 100 µM | OVCAR-4 28.7 µM and 17.9 µM | PC-3 62.2 µM | SF-539 > 100 µM | SK-MEL-2 > 100 µM | SK-OV-3 > 100 µM | SW-620 > 100 µM | T47D > 100 µM

CCOC(=O)C(NC(=O)C(CCCCNP(=O)(OCC)OCC)NC(=O)C(C)NC(C)=O)C(C)C (stereo not given)
inactive: 786-0 > 100 µM | ACHN > 100 µM | CAKI-1 > 100 µM | CCRF-CEM > 100 µM | COLO 205 > 100 µM | HOP-62 > 100 µM | MDA-MB-435 > 100 µM | MDA-N > 100 µM | NCI/ADR-RES > 100 µM | OVCAR-3 > 100 µM | OVCAR-4 > 100 µM | PC-3 > 100 µM | RPMI-8226 > 100 µM | SF-539 > 100 µM | SK-MEL-2 > 100 µM | SW-620 > 100 µM

O=C1c2ccccc2C(=O)N1NC1=NCCN1
inactive: 786-0 > 100 µM | ACHN > 100 µM | CAKI-1 > 100 µM | CCRF-CEM > 100 µM | COLO 205 > 100 µM | HOP-62 > 100 µM | MDA-MB-435 > 100 µM | MDA-N > 100 µM | NCI/ADR-RES > 100 µM | OVCAR-3 > 100 µM | OVCAR-4 > 100 µM | PC-3 > 100 µM | RPMI-8226 > 100 µM | SF-539 > 100 µM | SK-MEL-2 > 100 µM | SK-OV-3 > 100 µM | SW-620 > 100 µM | T47D > 100 µM | UACC-62 > 100 µM

COc1ccc(-n2c(C)nc3ccc(NC(=S)Nc4ccccc4)cc3c2=O)cc1
inactive: 786-0 > 100 µM | ACHN 65.9 µM | CAKI-1 > 100 µM | COLO 205 64.1 µM | HOP-62 > 100 µM | Hs-578T > 100 µM | MDA-MB-435 61.5 µM | NCI/ADR-RES > 100 µM | OVCAR-3 34.8 µM | OVCAR-4 86.1 µM | PC-3 35.7 µM | RPMI-8226 28.6 µM | SK-MEL-2 56.1 µM | SW-620 > 100 µM | T47D 44.6 µM | UACC-62 61.4 µM

Cc1c(O)c(OC2OC(CO)C(O)C(O)C2O)cc2c1CC[C@@H]1C2(C)C(=O)C[C@]2(C)[C@@H]([C@@](C)(O)C(=O)CCC(C)(C)O)[C@H](O)C[C@@]12C (stereo not given in full)
inactive: 786-0 > 100 µM | ACHN > 100 µM | CAKI-1 > 100 µM | CCRF-CEM > 100 µM | COLO 205 > 100 µM | HOP-62 > 100 µM | MDA-MB-435 > 100 µM | MDA-N > 100 µM | NCI/ADR-RES > 100 µM | OVCAR-3 > 100 µM | OVCAR-4 > 100 µM | PC-3 > 100 µM | SF-539 > 100 µM | SK-MEL-2 > 100 µM | SK-OV-3 > 100 µM | SW-620 > 100 µM | T47D > 100 µM | UACC-62 > 100 µM
